We go through two compounds from publication PMC6130489, “Caffeic acid methyl and ethyl esters exert potential antidiabetic effects on glucose and lipid metabolism in cultured murine insulin-sensitive cells through mechanisms implicating activation of AMPK” (Pharmaceutical Biology, 2017).

Values joined by “and” are separate entries in the source; they are usually repeats but may differ in a detail not shown here. Equal values may be shown once.

One data set relates to GLUT4. As to the kind of experiment: Western immunoblot GLUT4 protein content in L6 myotubes. The class given is cell-based, rat. The following applies: 50 μM, 18 h, GLUT4/β-actin. The method, then:
(§1) L6 cells myotubes, H4IIE cells and 3T3-L1 adipocytes were treated with either CAME, CAEE (50 μM each) or vehicle (DMSO) for 18 h. Insulin (100 nM) or aminoimidazole carboxamide ribonucleotide (AICAR; 1 mM) were added to some vehicle-treated wells 30 min prior to the end of the treatment and served as the positives controls. Protein content was assayed by the bicinchoninic acid method (Thermo Scientific Pierce Protein Research, Rockford, IL) standardized to bovine serum albumin. Western immunoblotting was performed as described elsewhere (Eid et al. [2010]). […] Immunoreactive bands were visualized by enhanced chemiluminescence and quantified by the Scion Image program (Scion Corporation, Frederick, MD). […]
(§2) Figure 1. […] Cells were treated as previously described, cell surface GLUT4myc was detected by an enzyme-linked colorimetric assay. […] Results represent the means ± SEM of three independent experiments, and 3-4 cells were analyzed for each condition per experiment. *Indicates a significant (p ≤ 0.05) difference, **(p < 0.01) from the vehicle control group as assessed by ANOVA. […] Data are expressed as (D) phospho-AMPK/β-actin, (E) GLUT4/β-actin and (F) GLUT1/β-actin and are given as mean ± SEM from 3 experiments. *p < 0.05 indicates a significant difference, **(p < 0.01) from the vehicle control group.

For another data set, the system named is Akt. The data set is described as follows: Western immunoblot phospho-Akt in L6 myotubes. The class given is cell-based, rat. The following applies: 50 μM, 18 h. The method, then:
as §1, §2
For orientation: In western blotting, separated proteins are transferred to a membrane and probed.

A further data set deals with H4IIE cells. The data set is described as follows: LDH cytotoxicity assay. The class given is cell-based. The following applies: 16-18 h, concentration inducing less than 10% cell death. How it is done: (§3) To determine nontoxic concentrations, cells were treated overnight (16–18 h) with 0.1% DMSO or different concentrations of either CAME or CAEE (12.5, 25, 50 and 100 μM). Cell culture media were collected separately and kept on ice. The cells were rinsed with PBS then lysed with 1% Triton X-100 in culture media for 10 min and the lysate were centrifuged at 4 °C for 10 min at 250g. Lactate dehydrogenase (LDH) activity in medium and in lysates was assayed with the LDH-Cytotoxicity Assay Kit II (BioVision, Mountain View, CA) according to the manufacturer's protocol (Smith et al. [2011]). LDH activity was expressed as the ratio of released LDH (medium) to total (medium + lysate) LDH activity.
(§4) Similar to our previous study in C2C12 cells, the maximum nontoxic concentrations of CAME and CAEE were determined using a LDH assay kit. Concentrations that induced less than 10% cell death were chosen as the maximum nontoxic concentrations (Table 1).

In another data set the test system is 3T3-L1 cells. As to the kind of experiment: LDH cytotoxicity assay. The following applies: 16-18 h, concentration inducing less than 10% cell death. It counts as cell-based. How it is done: as §3, §4
The next data set has as its system L6 GLUT4myc cells. As to the kind of experiment: LDH cytotoxicity assay. It counts as cell-based. The following applies: 16-18 h, concentration inducing less than 10% cell death. How it is done: as §3, §4
A further data set deals with C/EBP-β. The data set is described as follows: Western immunoblot C/EBP-β in 3T3-L1 adipocytes. The class given is cell-based, mouse. The following applies: 100 μM (Figure 4 legend). How it is done: Insulin (100 nM) or aminoimidazole carboxamide ribonucleotide (AICAR; 1 mM) were added to some vehicle-treated wells 30 min prior to the end of the treatment and served as the positives controls. Protein content was assayed by the bicinchoninic acid method (Thermo Scientific Pierce Protein Research, Rockford, IL) standardized to bovine serum albumin. Western immunoblotting was performed as described elsewhere (Eid et al. [2010]). Membranes were incubated overnight with phospho-AMPK, phospho-Akt, GLUT4, GLUT1 and β-actin antibodies (1:1000 dilution, Cell Signalling Technology, Danvers, MA), or with PPAR-γ, SREBP-1 (1:200, Santa Cruze Biotechnology, Santa Cruz, CA), followed by incubation with HRP-coupled secondary antibody (1:10,000) for 1 h. Immunoreactive bands were visualized by enhanced chemiluminescence and quantified by the Scion Image program (Scion Corporation, Frederick, MD). Experiments were repeated on 3 different passages of cells, each passage containing all conditions in parallel.
Figure 4. CAME and CAEE inhibit C/EBP-β and PPAR-γ protein expression through mechanisms implicating AMPK pathway. Shown are representative blots of 3T3-adipocytes treated with the maximum nontoxic concentration (100 μM) of either CAME or CAEE. […] Data are expressed as C/EBP-β/β-actin (D), PPAR-γ/β-actin (E), phospho-Akt/pan-Akt (F) and phospho-AMPK/pan-AMPK (G). […]

Another data set relates to GLUT4myc. The data set is described as follows: Cell surface GLUT4myc (GLUT4 translocation), OPD assay. The class given is cell-based, rat. The following applies: 50 μM, 18 h; L6-GLUT4myc. How it is done:
L6-GLUT4myc myotubes grown in 24-well plates were serum-starved for 4 h and were incubated with either CAME or CAEE (50 μM) for 18 h or insulin (100 nM) for 15 min. Cell-surface GLUT4myc levels were measured by an antibody-coupled colorimetric assay (Niu et al. [2003]) using O-phenylenediamine dihydrochloride (OPD) reagent (1 mL/well) (Sigma-Aldrich, St. Louis, MO), an anti-c-myc antibody (1:200 dilution; Santa Cruz Biotechnology, Santa Cruz, CA) and horseradish peroxidase (HRP)-conjugated goat anti-rabbit IgG at 4 °C (1:1000 dilution; Cell Signaling Technologies, Danvers, MA).
Figure 1. (A) CAME and CAEE increase ^3H-deoxyglucose uptake in L6 GLUT4myc myotubes. Cells were treated with 50 μM of either CAME, CAEE, or with vehicle (0.1% DMSO) for 18 h. 100 nM insulin served as the positive control and was applied for the last 15 min of the treatment in vehicle-treated cells. Glucose uptake was performed as described in Materials and Methods section. (B) CAME and CAEE stimulate GLUT4 translocation in L6 GLUT4myc myotubes. Cells were treated as previously described, cell surface GLUT4myc was detected by an enzyme-linked colorimetric assay. By the end of the treatment, L6- GLUT4myc cells were labeled with anti-c-myc antibody as described in Materials and Methods section. Results represent the means ± SEM of three independent experiments, and 3-4 cells were analyzed for each condition per experiment. *Indicates a significant (p ≤ 0.05) difference, **(p < 0.01) from the vehicle control group as assessed by ANOVA. […] L6 myotubes treated with CAME or CAEE (50 μM each), DMSO (0.1%) for 18 h. Insulin (100 nM) and AICAR (2 mM) both applied for 30 min and served as positive controls. Immunoblots were probed with anti phospho-AMPK (Thr 172), anti-GLUT4, anti-GLUT1 and anti-phospho-Akt (Ser 473) antibodies as described in Materials and Methods section. […] Data are expressed as (D) phospho-AMPK/β-actin, (E) GLUT4/β-actin and (F) GLUT1/β-actin and are given as mean ± SEM from 3 experiments. *p < 0.05 indicates a significant difference, **(p < 0.01) from the vehicle control group.

In the case of `CCOC(=O)/C=C/c1ccc(O)c(O)c1` [CAEE, caffeic acid ethyl ester], in the data set with GLUT4, the “GLUT4 content, fold compared to DMSO” value is reported as ~3.2 fold. Moreover, the “effect on Akt (phospho-Akt)” value in the data set with Akt is recorded as “no effect”. Further, the Maximum non-toxic concentration was determined as 50 µM with H4IIE cells, 100 µM in the data set on 3T3-L1 cells and 50 µM in the data set on L6 GLUT4myc cells. For the same compound, in the data set with C/EBP-β, the “protein level of C/EBP-β” value is “significantly reduced”. Also, the “GLUT4 translocation, fold relative to DMSO” value in the data set on GLUT4myc turned out to be 1.95 ± 0.30 fold.
Turning to `COC(=O)/C=C/c1ccc(O)c(O)c1` [CAME, CA methyl ester], the “GLUT4 content, fold compared to DMSO” value in the data set with GLUT4 was ~2.7 fold. For the same compound, the “effect on Akt (phospho-Akt)” value in the data set on Akt is reported as “no effect”. Also, the Maximum non-toxic concentration was determined as 100 µM with H4IIE cells, 100 µM with 3T3-L1 cells and 50 µM in the data set with L6 GLUT4myc cells. Besides, the “protein level of C/EBP-β” value in the data set with C/EBP-β is reported as “significantly reduced”. Further, the “GLUT4 translocation, fold relative to DMSO” value in the data set with GLUT4myc is 1.73 ± 0.18 fold and 1.79 ± 0.18 fold.
